Assay: Lipid-absorption suppressive activity: plasma triglyceride after oral salad oil tolerance
Type: in vivo, male ddy line mice
Experimental: (§1) Orbital blood collection from male ddy line mice of six weeks old (six animals per group) was carried out, and then 10 mL/kg of water or 0.1 g/kg of aqueous actein solution was orally administrated to each of them. After 30 minutes, 10 mL/kg of salad oil was orally administrated, orbital blood collection was performed after 180 minutes again, and blood plasma was separated to measure the triglyceride level.
as §1, with “0.2 g/kg or 1.0” for “0.1”, “aqueous” for “aqueous actein”, “solution of Black cohosh extract (Example 1)” for “solution”, “administrated.” for “administrated to each of them.”

For CC(=O)O[C@@H]1C[C@@]23C[C@@]24CC[C@H](O[C@@H]2OC[C@@H](O)[C@H](O)[C@H]2O)C(C)(C)[C@@H]4CC[C@H]3[C@]2(C)C[C@@H]3O[C@]4(C[C@@H](C)[C@@H]3[C@@]12C)O[C@H](O)[C@@]1(C)O[C@@H]41 [actein], the “Triglyceride level in blood plasma, before salad oil administration” value (0.1 g/kg actein oral group, baseline blood collected before dosing, mean ± SD, six animals) was 110.4 ± 22.2 mg/dL, the “Triglyceride level in blood plasma, after 180 minutes” value (0.1 g/kg actein oral, 30 min before 10 mL/kg salad oil, 180 min after oil, mean ± SD) was 248.6 ± 27.8 mg/dL and the “Triglyceride level in blood plasma after 180 minutes of salad oil tolerance (in words)” value (0.1 g/kg actein oral, vs water group) was “significantly suppressed”.

— US20060210659A1, “Anti-obesity agent” (priority 2005, published 2006)
